Results from ChEMBL document CHEMBL1914329, “2D MI-DRAGON: a new predictor for protein-ligands interactions and theoretic-experimental studies of US FDA drug-target network, oxoisoaporphine inhibitors for MAO-A and human parasite proteins” (Eur J Med Chem, 2011).

What was measured:
[1] = target: T1, Amine oxidase [flavin-containing] A (Homo sapiens, UniProt P21397); test: Inhibition of human recombinant MAOA expressed in baculovirus infected BTI-TN-5B1-4 insect cells assessed as hydrogen peroxide production from p-tyramine after 15 mins by amplex red assay
T1 sequence (P21397 whole entry): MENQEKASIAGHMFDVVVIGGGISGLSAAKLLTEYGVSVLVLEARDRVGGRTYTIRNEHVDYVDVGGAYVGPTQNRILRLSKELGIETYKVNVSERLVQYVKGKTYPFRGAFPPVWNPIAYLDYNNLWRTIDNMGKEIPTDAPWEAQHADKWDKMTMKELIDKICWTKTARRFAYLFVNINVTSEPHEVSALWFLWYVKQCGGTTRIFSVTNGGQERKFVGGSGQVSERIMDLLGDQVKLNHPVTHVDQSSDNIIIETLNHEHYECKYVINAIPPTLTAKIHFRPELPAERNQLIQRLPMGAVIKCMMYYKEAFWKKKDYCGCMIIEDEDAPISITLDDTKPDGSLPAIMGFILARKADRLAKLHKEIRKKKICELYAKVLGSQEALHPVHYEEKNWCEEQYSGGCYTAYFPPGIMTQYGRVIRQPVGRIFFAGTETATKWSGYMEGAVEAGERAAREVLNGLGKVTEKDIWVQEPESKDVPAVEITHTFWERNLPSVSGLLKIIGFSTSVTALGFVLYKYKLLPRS

[2] = target: T2, Amine oxidase [flavin-containing] B (Homo sapiens, UniProt P27338); test: biochemical; type: cell-based, BTI-TN-5B1-4
T2 sequence (P27338 whole entry): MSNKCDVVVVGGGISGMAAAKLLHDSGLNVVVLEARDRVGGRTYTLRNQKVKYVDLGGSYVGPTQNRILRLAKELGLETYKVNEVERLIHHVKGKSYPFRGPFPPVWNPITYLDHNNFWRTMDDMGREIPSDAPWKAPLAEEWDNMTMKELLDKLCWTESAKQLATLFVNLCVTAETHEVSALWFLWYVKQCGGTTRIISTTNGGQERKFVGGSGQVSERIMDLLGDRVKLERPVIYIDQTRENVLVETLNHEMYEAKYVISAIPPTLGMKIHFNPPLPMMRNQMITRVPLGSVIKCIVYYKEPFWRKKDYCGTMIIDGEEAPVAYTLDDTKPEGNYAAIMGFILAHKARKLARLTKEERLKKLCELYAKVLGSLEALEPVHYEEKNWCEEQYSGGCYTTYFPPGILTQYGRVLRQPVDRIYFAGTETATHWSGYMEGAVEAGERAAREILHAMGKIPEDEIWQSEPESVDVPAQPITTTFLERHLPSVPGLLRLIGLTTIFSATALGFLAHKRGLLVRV
Description: Inhibition of human recombinant MAOB expressed in baculovirus infected BTI-TN-5B1-4 insect cells assessed as hydrogen peroxide production from p-tyramine after 15 mins by amplex red assay

Homo sapiens = species on record: Homo sapiens; test: Selectivity index, ratio of IC50 for human recombinant MAO-B to IC50 for human recombinant MAO-A
[3] = target: T2, Amine oxidase [flavin-containing] B; test: Inhibition of human recombinant MAOB expressed in baculovirus infected BTI-TN-5B1-4 insect cells assessed as hydrogen peroxide production from p-tyramine at 1 mM after 15 mins by amplex red assay; settings: bti-tn-5b1-4, 0.25 h, 1000 µM

IC50 [1]	IC50 [2]	Ratio IC50 (Homo sapiens)	inhibition (INH) [3]	Structure (SMILES)
1.23 µM	> 100 µM	> 81	–	COc1cc2ccnc3c2c(c1O)C(=O)c1ccccc1-3
9.81 µM	> 50 µM	> 5.1	–	COc1cc2c3c(c1)C(O)c1ccccc1C3NCC2 (centres undefined)
2.12 µM	> 50 µM	> 24	–	COc1cc2c3c(c1)C(=O)C1=C(CCCC1)C3=NCC2
0.044 µM	> 100 µM	> 2270	–	COc1cc2c3c(c1O)C(=O)c1ccccc1C3=NCC2
27.3 µM	> 100 µM	> 3.7	–	O=C1c2ccccc2C2=NCCc3cccc1c32
–	–	–	Not Active	O=C(NCCN1CCOCC1)c1ccc(Cl)cc1 [MOCLOBEMIDE]
–	> 100 µM	–	–	COc1cc2c3c(nccc3c1)-c1ccccc1C2=O
0.72 µM	> 100 µM	> 139	–	O=C1c2ccccc2-c2nccc3cccc1c23
0.014 µM	> 100 µM	> 7140	–	COc1cc2c3c(c1)C(=O)c1ccccc1C3=NCC2
0.035 µM	> 100 µM	> 2860	–	O=C1c2ccccc2-c2nccc3cc(O)cc1c23
0.013 µM	> 100 µM	> 7690	–	COC1=Cc2ccnc3c2c(cc2ccccc23)C1=O
